Converted amounts (≈) assume the structure as drawn. The source made the active and inactive calls. The calls are words filed in the database; no cut-off is given here.
Assays:
Format in all cases: functional
Trichophyton erinacei = test: Antifungal activity against Trichophyton mentagrophytes var. erinacei NCPF 375 after 7 days by microbroth dilution method; conditions: NCPF 375, 168 h, read-out: MIC100
Trichophyton tonsurans = test: Antifungal activity against Trichophyton tonsurans NCPF 245 after 7 days by microbroth dilution method; conditions: NCPF 245, 168 h, read-out: MIC100
Candida parapsilosis = test: Antifungal activity against Candida parapsilosis ATCC 22019 after 48 hrs by microbroth dilution method; conditions: Lodderomyces parapsilosis, ATCC 22019, 48 h
Candida albicans = test: Antifungal activity against Candida albicans ATCC 10231 after 48 hrs by microbroth dilution method; conditions: ATCC 10231, 48 h
Staphylococcus aureus = test: Antibacterial activity against Staphylococcus aureus ATCC 29213 after 16 to 20 hrs by microbroth dilution method
Pichia kudriavzevii = test: Antifungal activity against Candida krusei ATCC 6258 after 48 hrs by microbroth dilution method; conditions: ATCC 6258, 48 h
[1] = system: Mycobacterium tuberculosis; test: Antimycobacterial activity against Mycobacterium tuberculosis H37Rv ATCC 27294 by microplate alamar blue assay
Pseudomonas aeruginosa = test: Antibacterial activity against Pseudomonas aeruginosa ATCC 27853 after 16 to 20 hrs by microbroth dilution method
Nannizzia gypsea = test: Antifungal activity against Microsporum gypseum NCPF 580 after 7 days by microbroth dilution method; conditions: NCPF 580, 168 h, read-out: MIC100
Escherichia coli = test: Antibacterial activity against Escherichia coli ATCC 25922 after 16 to 20 hrs by microbroth dilution method
[2] = Mycobacterium tuberculosis, H37Rv ATCC 27294

Compound	MIC (Trichophyton erinacei) [µg/mL]	MIC (Trichophyton tonsurans) [µg/mL]	MIC (Candida parapsilosis) [µg/mL]	MIC (Candida albicans) [µg/mL]	MIC (Staphylococcus aureus) [µg/mL]	MIC (Pichia kudriavzevii) [µg/mL]	inhibition (INH) [1] [%]	MIC90 [1, 2] [µg/mL]	MIC (Pseudomonas aeruginosa) [µg/mL]	MIC (Nannizzia gypsea) [µg/mL]	MIC (Escherichia coli) [µg/mL]	inhibition [1]	MIC ([1]; Mycobacterium tuberculosis, H37Rv ATCC 27294, read-out: MIC100) [µg/mL]
Cc1ccc(-n2c(Cc3csc4nc(-c5ccc(Br)cc5)cn34)n[nH]c2=S)cc1	16 (≈ 33.2 µM)	16 (≈ 33.2 µM)	16 (≈ 33.2 µM)	16 (≈ 33.2 µM)	64 (≈ 133 µM)	16 (≈ 33.2 µM)	4	> 6.25	64 (≈ 133 µM)	16 (≈ 33.2 µM)	64 (≈ 133 µM)		
CCn1c(Cc2csc3nc(-c4ccc(Br)cc4)cn23)n[nH]c1=S	16 (≈ 38.1 µM)	8 (≈ 19 µM)	32 (≈ 76.1 µM)	32 (≈ 76.1 µM)	64 (≈ 152 µM)	32 (≈ 76.1 µM)		> 6.25	> 64	16 (≈ 38.1 µM)	64 (≈ 152 µM)	inactive	
S=c1[nH]nc(Cc2csc3nc(-c4ccc(Br)cc4)cn23)n1-c1ccccc1	32 (≈ 68.3 µM)	16 (≈ 34.2 µM)	32 (≈ 68.3 µM)	32 (≈ 68.3 µM)	64 (≈ 137 µM)	32 (≈ 68.3 µM)	3	> 6.25	> 64	32 (≈ 68.3 µM)	> 64		
C[C@@H]1[C@H](O)[C@@H](C)/C=C/C=C/C=C/C=C/C=C/C=C/C=C/[C@H](O[C@@H]2O[C@H](C)[C@@H](O)[C@H](N)[C@@H]2O)C[C@@H]2O[C@](O)(C[C@@H](O)C[C@@H](O)[C@H](O)CC[C@@H](O)C[C@@H](O)CC(=O)O[C@H]1C)C[C@H](O)[C@H]2C(=O)O [AMPHOTERICIN B]	0.5 (≈ 0.541 µM)	0.25 (≈ 0.271 µM)								0.5 (≈ 0.541 µM)			
S=c1[nH]nc(Cc2csc3nc(-c4ccc(Br)cc4)cn23)n1-c1ccc(Br)cc1	64 (≈ 117 µM)	32 (≈ 58.5 µM)	32 (≈ 58.5 µM)	64 (≈ 117 µM)	> 64	64 (≈ 117 µM)		> 6.25	> 64	64 (≈ 117 µM)	> 64	inactive	
CO[C@H]1/C=C/O[C@@]2(C)Oc3c(C)c(O)c4c(O)c(c(/C=N/N5CCN(C)CC5)c(O)c4c3C2=O)NC(=O)/C(C)=C\C=C\[C@H](C)[C@H](O)[C@@H](C)[C@@H](O)[C@@H](C)[C@H](OC(C)=O)[C@@H]1C [RIFAMPIN]							97						0.25 (≈ 0.304 µM)
CCNc1nnc(Cc2csc3nc(-c4ccc(Br)cc4)cn23)s1	16 (≈ 38.1 µM)	8 (≈ 19 µM)	64 (≈ 152 µM)	64 (≈ 152 µM)	64 (≈ 152 µM)	32 (≈ 76.1 µM)			64 (≈ 152 µM)	16 (≈ 38.1 µM)	32 (≈ 76.1 µM)		
Cn1c(Cc2csc3nc(-c4ccc(Br)cc4)cn23)n[nH]c1=S	8 (≈ 19.7 µM)	16 (≈ 39.4 µM)	32 (≈ 78.8 µM)	32 (≈ 78.8 µM)	> 64	32 (≈ 78.8 µM)		> 6.25	> 64	16 (≈ 39.4 µM)	> 64	inactive	
C[C@H]1COc2c(N3CCN(C)CC3)c(F)cc3c(=O)c(C(=O)O)cn1c23.C[C@H]1COc2c(N3CCN(C)CC3)c(F)cc3c(=O)c(C(=O)O)cn1c23.O [LEVOFLOXACIN]					0.12				0.5				
C=CCn1c(Cc2csc3nc(-c4ccc(Br)cc4)cn23)n[nH]c1=S	64 (≈ 148 µM)	32 (≈ 74 µM)	64 (≈ 148 µM)	64 (≈ 148 µM)	> 64	64 (≈ 148 µM)	1	> 6.25	> 64	64 (≈ 148 µM)	> 64		
S=c1[nH]nc(Cc2csc3nc(-c4ccc(Br)cc4)cn23)n1-c1ccc(Cl)cc1	32 (≈ 63.6 µM)	32 (≈ 63.6 µM)	> 64	64 (≈ 127 µM)	> 64	64 (≈ 127 µM)		> 6.25	> 64	32 (≈ 63.6 µM)	> 64	inactive	
CNc1nnc(Cc2csc3nc(-c4ccc(Br)cc4)cn23)s1	16 (≈ 39.4 µM)	8 (≈ 19.7 µM)	16 (≈ 39.4 µM)	32 (≈ 78.8 µM)	> 64	16 (≈ 39.4 µM)			> 64	16 (≈ 39.4 µM)	> 64		
CCCn1c(Cc2csc3nc(-c4ccc(Br)cc4)cn23)n[nH]c1=S	16 (≈ 36.8 µM)	8 (≈ 18.4 µM)	64 (≈ 147 µM)	32 (≈ 73.7 µM)	64 (≈ 147 µM)	64 (≈ 147 µM)		> 6.25	> 64	16 (≈ 36.8 µM)	64 (≈ 147 µM)	inactive	
CCC(C)n1ncn(-c2ccc(N3CCN(c4ccc(OCC5COC(Cn6cncn6)(c6ccc(Cl)cc6Cl)O5)cc4)CC3)cc2)c1=O (configuration not stated) [ITRACONAZOLE]			0.06 (≈ 0.085 µM)	0.12 (≈ 0.17 µM)		0.12 (≈ 0.17 µM)							
CCCCn1c(Cc2csc3nc(-c4ccc(Br)cc4)cn23)n[nH]c1=S	32 (≈ 71.4 µM)	32 (≈ 71.4 µM)	64 (≈ 143 µM)	32 (≈ 71.4 µM)	32 (≈ 71.4 µM)	64 (≈ 143 µM)		> 6.25	64 (≈ 143 µM)	32 (≈ 71.4 µM)	32 (≈ 71.4 µM)	inactive	
